From patent US20250360212A1, “COMPOSITIONS AND USES OF PSCA TARGETED CHIMERIC ANTIGEN RECEPTOR MODIFIED CELLS EXPRESSING IL-15” (City of Hope, priority 2023, published 2025)

What was measured:
Capan-1 GR = assay: Effect of gemcitabine on gemcitabine-resistant cell lines (RTCA); type: cell-based, human; details: 1.6 uM and 3.2 uM; without medium change or with medium change at 1 h or 3 h; compared to parental cell line
From the text: (§1) Gemcitabine-based therapy is currently the standard first-line therapy for patients with advanced PDAC. However, tumor recurrence after gemcitabine treatment may lead to short patient survival (Jia Y, Gu D, Wan J, et al. The role of GLI-SOX2 signaling axis for gemcitabine resistance in pancreatic cancer. Oncogene 2019; 38 (10): 1764-77. doi: 10.1038/s41388-018-0553-0 [published Online First: 2018 Oct. 31]). Therefore, it is critical to verify whether […] cells are effective in killing gemcitabine-resistant tumors in vitro and in vivo. In this case, we established two gemcitabine-resistant (GR) cell lines (Capan-1 GR and MIA Paca-2 GR) by exposing parental Capan-1 and MIA Paca-2 cells to increasing concentrations of gemcitabine for 9 months. […] Compared to the parental cell lines, Capan-1 GR and MIA Paca-2 GR were not killed by gemcitabine at concentrations of 1.6 uM and 3.2 uM, either without medium change or with medium change at 1 h or 3 h (FIG. 6B, FIGS. 10 and 11). We explored the anti-PC effect of […] cells targeting Capan-1 GR and MIA Paca-2 GR cells in vitro. […] We also measured the levels of CD25, CD69, CD107a, TNF-α, and IFN-γ expression of […] cells after co-incubation with GR cells and the parental cells. […] Next, we evaluated the therapeutic effect of […] cells against Capan-1 GR cells in vivo. The parental Capan-1 cells were injected as control.

MIA Paca-2 GR = assay: as above; type: cell-based, human; details: 1.6 uM and 3.2 uM; without medium change or with medium change at 1 h or 3 h; compared to parental cell line
From the text: as §1

## Nc1ccn([C@@H]2O[C@H](CO)[C@@H](O)C2(F)F)c(=O)n1 [gemcitabine, 2′,2′-difluorodeoxycytidine]
Capan-1 GR
  killing by gemcitabine (RTCA): not killed
MIA Paca-2 GR
  killing by gemcitabine (RTCA): not killed
